Experimental data from patent publication US20260226068A1, “IMIDAZOTRIAZINE IL-17A MODULATORS AND USES THEREOF” (DICE ALPHA, INC., priority 2023, published 2026).

What was measured:
IL-17A/F = target: T1, IL-17A/F (Homo sapiens, UniProt Q16552+Q96PD4); assay: IL-17A/F HEK-Blue cell assay (SEAP reporter); format: cell-based; settings: HEK-Blue IL-17A reporter cells, IL17A/F 5 ng/mL, 20 hours, SEAP read at A630; read-out: HEK-Blue IL17AF (IC50 for IL-17A/F inhibition)
T1 construct: purchased R&D Systems
T1 sequence (Q16552 24-155): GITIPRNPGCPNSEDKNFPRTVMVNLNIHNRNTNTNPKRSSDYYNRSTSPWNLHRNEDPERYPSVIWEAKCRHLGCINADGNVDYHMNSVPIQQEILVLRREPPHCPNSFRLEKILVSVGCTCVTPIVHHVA
T1 sequence (Q96PD4 31-163): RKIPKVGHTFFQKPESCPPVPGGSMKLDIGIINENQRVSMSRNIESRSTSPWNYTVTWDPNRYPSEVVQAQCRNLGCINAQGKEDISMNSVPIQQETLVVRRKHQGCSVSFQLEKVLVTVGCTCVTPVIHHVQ

IL-17A/A = target: T2, IL-17A/A (Homo sapiens, UniProt Q16552); assay: IL-17A/A HEK-Blue cell assay (SEAP reporter); format: cell-based; settings: HEK-Blue IL-17A reporter cells, IL17A/A 5 ng/mL, 20 hours, SEAP read at A630; read-out: HEK-Blue IL17AA (IC50 for IL-17A/A inhibition)
T2 construct: purchased Genscript Z03228
T2 sequence (Q16552 24-155): T1 sequence (Q16552 24-155)

Row | SMILES | IC50 (IL-17A/F) [nM] | IC50 (IL-17A/A) [nM]
1 | CCn1nccc1C(=O)N[C@H](c1cn2nc(C[C@H]3C[C@@H](C(F)(F)F)CNC3=O)c(N3CCN(C(=O)OC(C)(C)C)[C@@H](C)C3)nc2n1)C1CCC(F)(F)CC1 [Compound 238, tert-butyl (S)-4-(6-((S)-(4,4-difluorocyclohexyl)(1-ethyl-1H-pyrazole-5-carboxamido)methyl)-2-(((3R,5R)-2-oxo-5-(trifluoromethyl)piperidin-3-yl)methyl)imidazo[1,2-b][1,2,4]triazin-3-yl)-2-methylpiperazine-1-carboxylate] | 100 to 1000 | 100 to 1000
2 | CCn1nccc1C(=O)N[C@H](c1cn2nc(C[C@H]3C[C@@H](C(F)(F)F)CNC3=O)c(N3CCN[C@@H](C)C3)nc2n1)C1CCC(F)(F)CC1 [Compound 239, N—((S)-(4,4-difluorocyclohexyl)(3-((S)-3-methylpiperazin-1-yl)-2-(((3R,5R)-2-oxo-5-(trifluoromethyl)piperidin-3-yl)methyl)imidazo[1,2-b][1,2,4]triazin-6-yl)methyl)-1-ethyl-1H-pyrazole-5-carboxamide] | > 1000 | 100 to 1000
3 | CCn1nccc1C(=O)N[C@H](c1cn2nc(C[C@H]3C[C@@H](C(F)(F)F)CNC3=O)c(N3C[C@@H](C)O[C@H](C)C3)nc2n1)C1CCC(F)(F)CC1 [Compound 241, N—((S)-(4,4-difluorocyclohexyl)(3-((2R,6R)-2,6-dimethylmorpholino)-2-(((3R,5R)-2-oxo-5-(trifluoromethyl)piperidin-3-yl)methyl)imidazo[1,2-b][1,2,4]triazin-6-yl)methyl)-1-ethyl-1H-pyrazole-5-carboxamide] | < 100 | < 100
4 | CCn1nccc1C(=O)N[C@H](c1cn2nc(C[C@H]3C[C@@H](C(F)(F)F)CNC3=O)c(N3CCN(C(C)(C)C)CC3)nc2n1)C1CCC(F)(F)CC1 [Compound 242, N—((S)-(3-(4-(tert-butyl)piperazin-1-yl)-2-(((3R,5R)-2-oxo-5-(trifluoromethyl)piperidin-3-yl)methyl)imidazo[1,2-b][1,2,4]triazin-6-yl)(4,4-difluorocyclohexyl)methyl)-1-ethyl-1H-pyrazole-5-carboxamide] | 100 to 1000 | < 100
5 | CCn1nccc1C(=O)N[C@H](c1cn2nc(C[C@H]3C[C@@H](C(F)(F)F)CNC3=O)c(N3CCN(CC4CC4)CC3)nc2n1)C1CCC(F)(F)CC1 [Compound 244, N—((S)-(3-(4-(cyclopropylmethyl)piperazin-1-yl)-2-(((3R,5R)-2-oxo-5-(trifluoromethyl)piperidin-3-yl)methyl)imidazo[1,2-b][1,2,4]triazin-6-yl)(4,4-difluorocyclohexyl)methyl)-1-ethyl-1H-pyrazole-5-carboxamide] | 100 to 1000 | < 100
6 | CCn1nccc1C(=O)N[C@H](c1cn2nc(C[C@H]3C[C@@H](C(F)(F)F)CNC3=O)c(N3CCCOCC3)nc2n1)C1CCC(F)(F)CC1 [Compound 245, N—((S)-(3-(1,4-oxazepan-4-yl)-2-(((3R,5R)-2-oxo-5-(trifluoromethyl)piperidin-3-yl)methyl)imidazo[1,2-b][1,2,4]triazin-6-yl)(4,4-difluorocyclohexyl)methyl)-1-ethyl-1H-pyrazole-5-carboxamide] | 100 to 1000 | < 100
7 | CCn1nccc1C(=O)N[C@H](c1cn2nc(C[C@H]3C[C@@H](C(F)(F)F)CNC3=O)c(N3C[C@@H](C)O[C@@H](C)C3)nc2n1)C1CCC(F)(F)CC1 [Compound 247, N—((S)-(4,4-difluorocyclohexyl)(3-((2R,6S)-2,6-dimethylmorpholino)-2-(((3R,5R)-2-oxo-5-(trifluoromethyl)piperidin-3-yl)methyl)imidazo[1,2-b][1,2,4]triazin-6-yl)methyl)-1-ethyl-1H-pyrazole-5-carboxamide] | 100 to 1000 | < 100
8 | CCn1ncnc1C(=O)N[C@H](c1cn2nc(C[C@H]3C[C@@H](C(F)(F)F)CNC3=O)c(C3CCS(=O)(=O)CC3)nc2n1)C1CCC(F)(F)CC1 [Compound 248, N—((S)-(4,4-difluorocyclohexyl)(3-(1,1-dioxidotetrahydro-2H-thiopyran-4-yl)-2-(((3R,5R)-2-oxo-5-(trifluoromethyl)piperidin-3-yl)methyl)imidazo[1,2-b][1,2,4]triazin-6-yl)methyl)-1-ethyl-1H-1,2,4-triazole-5-carboxamide] | > 1000 | < 100
9 | O=C(N[C@H](c1cn2nc(C[C@H]3C[C@@H](C(F)(F)F)CNC3=O)c([C@H]3CCCOC3)nc2n1)[C@@H]1CCCC(F)(F)C1)c1nonc1C1CC1 [Compound 249] | 100 to 1000 | < 100
10 | CCn1nccc1C(=O)N[C@H](c1cn2nc(C[C@H]3C[C@@H](C(F)(F)F)CNC3=O)c(C34COCC(C3)C4)nc2n1)C1CCC(F)(F)CC1 [Compound 253, N—((S)-(3-(3-oxabicyclo[3.1.1]heptan-1-yl)-2-(((3R,5R)-2-oxo-5-(trifluoromethyl)piperidin-3-yl)methyl)imidazo[1,2-b][1,2,4]triazin-6-yl)(4,4-difluorocyclohexyl)methyl)-1-ethyl-1H-pyrazole-5-carboxamide] | 100 to 1000 | < 100
11 | CCn1nccc1C(=O)N[C@H](c1cn2nc(C[C@H]3C[C@@H](C(F)(F)F)CNC3=O)c(C34CCCC(C3)OC4)nc2n1)C1CCC(F)(F)CC1 (stereo partly drawn) [Compound 254, N-((1S)-(3-(6-oxabicyclo[3.2.1]octan-1-yl)-2-(((3R,5R)-2-oxo-5-(trifluoromethyl)piperidin-3-yl)methyl)imidazo[1,2-b][1,2,4]triazin-6-yl)(4,4-difluorocyclohexyl)methyl)-1-ethyl-1H-pyrazole-5-carboxamide] | 100 to 1000 | < 100
12 | CCn1nccc1C(=O)N[C@H](c1cn2nc(C[C@H]3C[C@@H](C(F)(F)F)CNC3=O)c(C34COC(C3)C4)nc2n1)C1CCC(F)(F)CC1 [Compound 255, N—((S)-(3-(2-oxabicyclo[2.1.1]hexan-4-yl)-2-(((3R,5R)-2-oxo-5-(trifluoromethyl)piperidin-3-yl)methyl)imidazo[1,2-b][1,2,4]triazin-6-yl)(4,4-difluorocyclohexyl)methyl)-1-ethyl-1H-pyrazole-5-carboxamide] | 100 to 1000 | < 100
13 | CC(C)c1nc2nc([C@@H](NC(=O)c3ccnn3C)C3CCC(F)(F)CC3)cn2nc1C[C@H]1C[C@@H](C(F)(F)F)CNC1=O [Compound 261, N—((S)-(4,4-difluorocyclohexyl)(3-isopropyl-2-(((3R,5R)-2-oxo-5-(trifluoromethyl)piperidin-3-yl)methyl)imidazo[1,2-b][1,2,4]triazin-6-yl)methyl)-1-methyl-1H-pyrazole-5-carboxamide] | 100 to 1000 | < 100

More lines, now with the values ahead:

Row | IC50 (IL-17A/F) [nM] | IC50 (IL-17A/A) [nM] | SMILES
14 | 100 to 1000 | 100 to 1000 | CCn1nccc1C(=O)N[C@H](c1cn2nc(C[C@H]3C[C@@H](C(F)(F)F)CNC3=O)c(C3CCOC4(C3)CN(C(=O)OC(C)(C)C)C4)nc2n1)C1CCC(F)(F)CC1 (stereo partly drawn) [Compound 240, tert-butyl 8-(6-((S)-(4,4-difluorocyclohexyl)(1-ethyl-1H-pyrazole-5-carboxamido)methyl)-2-(((3R,5R)-2-oxo-5-(trifluoromethyl)piperidin-3-yl)methyl)imidazo[1,2-b][1,2,4]triazin-3-yl)-5-oxa-2-azaspiro[3.5]nonane-2-carboxylate]
15 | > 1000 | < 100 | O=C(N[C@H](c1cn2nc(C[C@H]3C[C@@H](C(F)(F)F)CNC3=O)c(C3CCS(=O)(=O)CC3)nc2n1)C1CCC(F)(F)CC1)c1nonc1C1CC1 [Compound 243, 4-cyclopropyl-N—((S)-(4,4-difluorocyclohexyl)(3-(1,1-dioxidotetrahydro-2H-thiopyran-4-yl)-2-(((3R,5R)-2-oxo-5-(trifluoromethyl)piperidin-3-yl)methyl)imidazo[1,2-b][1,2,4]triazin-6-yl)methyl)-1,2,5-oxadiazole-3-carboxamide]
16 | > 1000 | 100 to 1000 | Cc1nccnc1C(=O)N[C@H](c1cn2nc(C[C@H]3C[C@@H](C(F)(F)F)CNC3=O)c(C3CCOCC3)nc2n1)C1CCC(F)(F)CC1 [Compound 246, N—((S)-(4,4-difluorocyclohexyl)(2-(((3R,5R)-2-oxo-5-(trifluoromethyl)piperidin-3-yl)methyl)-3-(tetrahydro-2H-pyran-4-yl)imidazo[1,2-b][1,2,4]triazin-6-yl)methyl)-3-methylpyrazine-2-carboxamide]
17 | 100 to 1000 | < 100 | CCn1nccc1C(=O)N[C@H](c1cn2nc(C[C@H]3C[C@@H](C(F)(F)F)CNC3=O)c(C34CCOC(C3)C4)nc2n1)C1CCC(F)(F)CC1 [Compound 250, N—((S)-(3-(2-oxabicyclo[3.1.1]heptan-5-yl)-2-(((3R,5R)-2-oxo-5-(trifluoromethyl)piperidin-3-yl)methyl)imidazo[1,2-b][1,2,4]triazin-6-yl)(4,4-difluorocyclohexyl)methyl)-1-ethyl-1H-pyrazole-5-carboxamide]
18 | 100 to 1000 | < 100 | CC(F)(F)c1nocc1C(=O)N[C@H](c1cn2nc(C[C@H]3C[C@@H](C(F)(F)F)CNC3=O)c(C3CCOCC3)nc2n1)C1CCC(F)(F)CC1 [Compound 260, N—((S)-(4,4-difluorocyclohexyl)(2-(((3R,5R)-2-oxo-5-(trifluoromethyl)piperidin-3-yl)methyl)-3-(tetrahydro-2H-pyran-4-yl)imidazo[1,2-b][1,2,4]triazin-6-yl)methyl)-3-(1,1-difluoroethyl)isoxazole-4-carboxamide]
